Active and inactive are the calls of the source. The calls are words filed in the database; no cut-off is given here.
Tests used:
BMEC = assay: Cytotoxicity against bovine microvascular endothelial cells; format: cell-based, Bos taurus; conditions: cattle
Gallus gallus = organism: Gallus gallus; assay: Antiangiogenic activity against bFGF-induced angiogenesis in chick embryo chorioallantoic membrane; format: functional, tissue-based

| SMILES | Activity (BMEC) | Activity (Gallus gallus) |
| --- | --- | --- |
| COc1cc(O)c(O)c2c1C(=O)O[C@@H]2CCCCCCCCCC1(O)CC[C@@H](C)O1 (stereo partly specified) | Non-toxic | Active |
| COc1cc(O)cc2c1C(=O)O[C@@H]2CCCCCCCCCC1(O)CC[C@@H](C)O1 (stereo partly specified) | Non-toxic | Active |
| COc1cc(O)cc2c1C(=O)O[C@@H]2CCCCC[C@@H]1CCC[C@]2(CC[C@@H](C)O2)O1 | Non-toxic | Active |

From ChEMBL document CHEMBL1158137, “Absolute configuration of sporotricale and structure of 6-hydroxysporotricale” (J Nat Prod, 2006)
